Experimental data from the supplement of paper PMC11451515.

Experiments:
Assay in all cases: AUC of viability dose-response curve (% viability x log10 dose units); higher = less sensitive
Conditions in all cases: 48 h
[1] = test system: SEM cells
Procedure, shortened: (§1)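 Leukemia cells adapted to each medium were seeded in 1536-well plates (500 or 1000 cells/well) and given library compounds in DMSO for 48 h at 37°C. The 11 threefold doses spanned 47 μM to 0.79 nM, and CellTiter-Glo One luminescence was normalised per plate to DMSO and cell-free wells before four-parameter log-logistic fitting on log10 dose. Area under the curve was integrated with the trapezoidal rule, scaling curves above full viability and removing curves that failed quality control.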

[2] = test system: NOMO1
Procedure, shortened: as §1

[3] = test system: P12-Ichikawa
Procedure, shortened: as §1

[4] = RPMI 5 mM glucose + 10% dialyzed FBS

Structure (SMILES) | AUC of viability dose-response curve ([1]; HPLM + 10% dialyzed FBS) | AUC of viability dose-response curve ([1]; RPMI 5 mM glucose + 10% FBS) | AUC of viability dose-response curve [1, 4] | AUC of viability dose-response curve ([2]; HPLM + 10% dialyzed FBS) | AUC of viability dose-response curve ([2]; RPMI 5 mM glucose + 10% FBS) | AUC of viability dose-response curve [2, 4] | AUC of viability dose-response curve ([3]; HPLM + 10% dialyzed FBS) | AUC of viability dose-response curve ([3]; RPMI 5 mM glucose + 10% FBS) | AUC of viability dose-response curve [3, 4]
CNc1nc(Nc2cnn([C@H]3CCN(C4COC4)C[C@@H]3F)c2Cl)ncc1C(F)(F)F | 388 | 276 | 363 | 316 | 360 | 391 | 368 | 400 | 397
CN1CCCN(CC1)C2=CC=C3C(=O)\C(=C/4SC5=C(C=CC=C5)N4C3=N2)C(=O)NCC6=CN=C(C)C=N6 | 417 | 335 | 374 | 442 | 468 | 450 | 447 | 410 | 420
O=C(O)c1cccnc1Nc1cccc(C(F)(F)F)c1 | 466 | 420 | 436 | 446 | 452 | 461 | 451 | 451 | 444
CNCC[C@H](Oc1cccc2ccccc12)c1cccs1 | 437 | 437 | 412 | 411 | 429 | 430 | 453 | 466 | 459
C[C@@H]1CCO[C@H]2CN\3/C=C(/C(=O)NCC4=C(F)C=C(F)C=C4)C(=O)\C(=C3C(=O)N12)O | 447 | 454 | 465 | 458 | 442 | 452 | 456 | 460 | 459
COc1ccc(C(=O)CC2(O)C(=O)Nc3c(Cl)ccc(Cl)c32)cc1 (configuration not stated) | 391 | 330 | 388 | 408 | 416 | 418 | 388 | 387 | 406
CC(C(=O)O)c1ccc2c(c1)CC(=O)c1ccccc1S2 (configuration not stated) | 440 | 461 | 458 | 389 | 418 | 415 | 427 | 418 | 425
CNC(=O)c1ccc(Nc2cc(Nc3ccccc3[S+](=O)([O-])C(C)C)c3cc[nH]c3n2)nc1 | 319 | 345 | 323 | 422 | 407 | 414 | 367 | 355 | 377
COc1cc[nH]c2ncc(C(=O)C(=O)N3CCN(C(=O)c4ccccc4)C[C@H]3C)c1-2 | 419 | 453 | 428 | 389 | 461 | 452 | 455 | 463 | 470
Cc1cccc(Nc2ccncc2[S+](=O)([O-])NC(=O)NC(C)C)c1 | 409 | 457 | 459 | 442 | 412 | 415 | 450 | 457 | 425
CC#CCn1c(N2CCC[C@@H](N)C2)nc2c1c(=O)n(Cc1nc(C)c3ccccc3n1)c(=O)n2C | 475 | 460 | 433 | 471 | 443 | 457 | 473 | 450 | 449
CC(C)OC(=O)[C@H](C)N[P@](=O)(OC[C@H]1O[C@@H](N2\C=C/C(=O)NC2=O)[C@](C)(F)[C@@H]1O)OC3=CC=CC=C3 | 387 | 399 | 405 | 372 | 412 | 409 | 331 | 391 | 385
COc1ccc(C(=O)c2c(C)n(CCN3CCOCC3)c3cc(I)ccc23)cc1 | 461 | 461 | 458 | 354 | 344 | 357 | 381 | 381 | 409
CC(N[C@H]1CCCC[C@@H]1NC(=O)c1ccc(Cl)cc1)c1cccc2ccccc12 (some centres not stated) | 449 | 449 | 455 | 398 | 416 | 421 | 428 | 420 | 425
CC(C)c1cc(C(C)C)c(CC(=O)N[S+](=O)([O-])Oc2c(C(C)C)cccc2C(C)C)c(C(C)C)c1 | 471 | 467 | 464 | 445 | 439 | 426 | 469 | 469 | 451
CN1CC(=O)N2[C@H](c3ccc4c(c3)OCO4)c3[nH]c4ccccc4c3C[C@@H]2C1=O | 466 | 435 | 461 | 427 | 447 | 449 | 456 | 440 | 419
COc1ccc2c(c1)[C@]13CCCCC1C(C2)N(C)CC3 (some centres not stated) | 435 | 443 | 467 | 468 | 466 | 469 | 467 | 474 | 457
COC1=C(OCCCN2CCOCC2)C=C3N=CC=C(OC4=CC=C(C=C4F)\C5=C\N=C(\NC6=CC=C(F)C=C6)N(C)C5=O)C3=C1 | 282 | 297 | 258 | 441 | 447 | 429 | 447 | 448 | 445
